Measured values as given in patent publication US20170231949A1, “CELL REPAIR AGENT AND DISINFECTION SYSTEM” (priority 2014, published 2017).

Legend:
Format in all cases: cell-based
[1] = system: mouse fibroblasts in growth phase; assay: Tests 4, 6, 7, 8: post-treatment after acidic electrolyzed water, degree of cell proliferation by MTT method; settings: 24 hours culture
Procedure: (§1) Similarly to Test 1, mouse fibroblasts in growth phase were treated with four-fold-diluted acidic electrolyzed water and undiluted acidic electrolyzed water for 30 seconds. After washing with phosphate-buffered saline, 100 μl of 140 mM DMSO or 1 mg/ml proanthocyanidin prepared with serum-free DMEM was added to each well, and then cells were cultured for 30 minutes under conditions of 37° C. and 5% CO2. After washing with PBS, fresh medium was added, and then the degree of cell proliferation after 24 hours of culture under conditions of 37° C. and 5% CO2 was determined by the MTT method. In addition, a significant difference between groups was tested by Tukey-Krammer's multiple comparison test (multiple comparative analysis).
as §1, with “4,” for “1,”, “PBS,” for “phosphate-buffered saline,”, “of” for “of 140 mM DMSO or”, “(+)-catechin (Tokyo Chemical Industry Co., Ltd.)” for “proanthocyanidin”, “followed by” for “and then cells were cultured for”, “minutes of culture” for “minutes”
Similarly to Test 4, mouse fibroblasts in growth phase were treated with undiluted acidic electrolyzed water for 30 seconds. After washing with PBS, 100 μl of 1 mg/ml chlorogenic acid (Sigma-Aldrich), caffeic acid (Tokyo Chemical Industry Co., Ltd.) or gallic acid (Tokyo Chemical Industry Co., Ltd.) prepared with serum-free DMEM was added to each well, followed by 5 or 30 minutes of culture under conditions of 37° C. and 5% CO2. After washing with PBS, fresh medium was added, and then the degree of cell proliferation after 24 hours of culture under conditions of 37° C., 5% CO2 was determined by the MTT method. In addition, a significant difference between groups was tested by Tukey-Krammer's multiple comparison test (multiple comparative analysis).
Similarly to Test 4, mouse fibroblasts in growth phase were treated with undiluted acidic electrolyzed water for 30 seconds. After washing with PBS, 100 μl of 1 mg/ml proanthocyanidin prepared with serum-free DMEM was added to each well, and the resultants were each left to sit at room temperature for 1 minute and 5 minutes. After washing with PBS, fresh medium was added, and then the degree of cell proliferation after 24 hours of culture under conditions of 37° C. and 5% CO2 was determined by the MTT method. In addition, a significant difference between groups was tested by Tukey-Krammer's multiple comparison test (multiple comparative analysis).

[2] = system: mouse fibroblasts in stationary phase; assay: Test 3: impact of DMSO and proanthocyanidin on intracellular ROS levels increased by acidic electrolyzed water; settings: four-fold-diluted or undiluted AEW 30 seconds, then 140 mM DMSO or 1 mg/ml proanthocyanidin, 1 hour
Procedure: Specifically, 100 μl of 1 mM 2',7'-dichlorodihydrofluorescin Diacetate (DCFH-DA) dissolved in serum-free medium (DMEM only) was added to each well, and then cells were cultured for 1 hour under conditions of 37° C. and 5% CO2. After culture, washing with phosphate-buffered saline was performed, 100 μl of 2× Cell Lysis Buffer (Cell Biolabs) and 100 μl of serum-free DMEM were added, and then the resultants were left to stand for 5 minutes. 150 μl of the resultants was transferred from each well to a black 96-well microplate, fluorescence intensities were measured at an excitation wavelength of 450 nm and a fluorescence wavelength of 530 nm using a microplate reader (“FilterMaxTM F5 Multi-Mode Microplate Reader”, Molecular Devices). A standard curve was prepared using 2',7'-dichlorodihydrofluorescein (DCF), and intracellular ROS levels were represented by DCF equivalents (nM). In addition, a significant difference to the average value of each control group (control) was tested by Dunnett's multiple comparison test (multiple comparative analysis). Similarly to Test 2, mouse fibroblasts in stationary phase were treated with four-fold-diluted acidic electrolyzed water and undiluted acidic electrolyzed water for 30 seconds. […] After culture, similarly to Test 2, intracellular ROS levels were determined.

[3] = system: human gingival fibroblasts in growth phase; assay: Test 5: post-treatment after acidic electrolyzed water, degree of cell proliferation by MTT method; settings: four-fold-diluted or undiluted AEW 30 seconds, then 140 mM DMSO or 1 mg/ml proanthocyanidin for 30 minutes; 24 hours culture
Procedure: A test similar to Test 4 was conducted for human gingival fibroblasts in growth phase. First, human gingival fibroblasts (purchased from Primary Cell Co., Ltd.) were cultured in a 25 cm^2 flask under conditions of 37° C. and 5% CO2, and then a cell suspension was prepared similarly to the case of mouse fibroblasts in medium to a cell density of 2×10^4 cells/ml. 100 μl each of the cell suspension was seeded to each well of a 96-well microplate.

[4] = undiluted AEW 30 seconds, then 1 mg/ml test substance for 5 or 30 minutes

O=C(/C=C/c1ccc(O)c(O)c1)O[C@@H]1C[C@](O)(C(=O)O)C[C@@H](O)[C@H]1O [chlorogenic acid]
cell proliferation state (degree of cell proliferation, MTT) [1, 4]: significantly improved

O=C(O)c1cc(O)c(O)c(O)c1 [gallic acid]
cell proliferation state (degree of cell proliferation, MTT) [1, 4]: significantly improved

C[S+](C)[O-] [DMSO, dimethyl sulfoxide]
ROS level increased by acidic electrolyzed water [2]: significantly decreased
cell proliferation state (degree of cell proliferation, MTT) [3]: no change
cell proliferation state (degree of cell proliferation, MTT) ([1]; four-fold-diluted and undiluted AEW 30 seconds, then 140 mM DMSO or 1 mg/ml proanthocyanidin for 30 minutes): no change

O=C(O)/C=C/c1ccc(O)c(O)c1 [caffeic acid]
cell proliferation state (degree of cell proliferation, MTT) [1, 4]: significantly improved

Oc1cc(O)c2c(c1)O[C@H](c1ccc(O)c(O)c1)[C@@H](O)C2 [(+)-catechin]
cell proliferation state (degree of cell proliferation, MTT) ([1]; four-fold-diluted and undiluted AEW 30 seconds, then 1 mg/ml (+)-catechin for 30 minutes): significantly improved
